Results from US20240158446A1, “CYCLIC COMPOUND HAVING SELECTIVE INHIBITORY ACTION ON KRAS OVER HRAS AND NRAS” (CHUGAI SEIYAKU KABUSHIKI KAISHA, priority 2021, published 2024).
Where two headings read alike, the source gives them in different places. Where a SMILES comes first, the peptide text is derived from it. Bridges are numbered along the chain shown (N, C = ends). [ ]: non-standard residue; d: D form. The star is where a group is joined. hPhe(3,5-F2-4-CF3) = N[C@@H](CCc1cc(F)c(C(F)(F)F)c(F)c1)C(=O)O; hPhe(3-Cl-4-CF3) = N[C@@H](CCc1ccc(C(F)(F)F)c(Cl)c1)C(=O)O; NPrPhe(4-CF3) = CCCN[C@@H](Cc1ccc(C(F)(F)F)cc1)C(=O)O; NMeGly(cPent) = CN[C@H](C(=O)O)C1CCCC1; Hyp = O=C(O)[C@@H]1C[C@@H](O)CN1; NMeD = CN[C@@H](CC(=O)O)C(=O)O; NMeL = CN[C@@H](CC(C)C)C(=O)O; αMeV = CC(C)[C@](C)(N)C(=O)O; Morpholide = C1CN(*)CCO1; dNMeA = CN[C@H](C)C(=O)O; Ac5c = NC1(C(=O)O)CCCC1; Sar = CNCC(=O)O

Experiments:
[1] = target: GDP-bound KRAS wild-type protein (Homo sapiens, UniProt P01116); test: Binding to KRAS by surface plasmon resonance (SPR), Single Cycle Kinetics; conditions: GDP-bound KRAS wild-type protein, read-out: KRAS KD
Sequence of GDP-bound KRAS wild-type protein (P01116 whole entry): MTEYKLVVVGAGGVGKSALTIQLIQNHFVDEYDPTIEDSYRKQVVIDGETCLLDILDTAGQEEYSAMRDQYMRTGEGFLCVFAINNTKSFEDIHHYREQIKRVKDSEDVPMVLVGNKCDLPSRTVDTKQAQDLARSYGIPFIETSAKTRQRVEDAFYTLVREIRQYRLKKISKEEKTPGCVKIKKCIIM

[2] = target: GDP-bound HRAS wild-type protein (Homo sapiens, UniProt P01112); test: Binding to HRAS by surface plasmon resonance (SPR), Single Cycle Kinetics
Sequence of GDP-bound HRAS wild-type protein (P01112 whole entry): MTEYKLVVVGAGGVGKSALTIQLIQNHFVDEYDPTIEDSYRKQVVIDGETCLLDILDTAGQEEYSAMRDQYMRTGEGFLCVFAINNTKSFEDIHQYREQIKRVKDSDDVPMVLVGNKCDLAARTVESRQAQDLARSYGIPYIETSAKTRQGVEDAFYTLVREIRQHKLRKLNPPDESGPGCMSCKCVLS

[3] = target: GDP-bound NRAS wild-type protein (Homo sapiens, UniProt P01111); test: Binding to NRAS by surface plasmon resonance (SPR), Single Cycle Kinetics
Sequence of GDP-bound NRAS wild-type protein (P01111 whole entry): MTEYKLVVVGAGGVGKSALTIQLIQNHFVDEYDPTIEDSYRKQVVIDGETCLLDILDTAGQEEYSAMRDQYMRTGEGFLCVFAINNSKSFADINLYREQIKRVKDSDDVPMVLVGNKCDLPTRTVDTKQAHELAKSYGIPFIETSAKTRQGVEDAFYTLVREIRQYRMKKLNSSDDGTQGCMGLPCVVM

[4] = SPR Single Cycle Kinetics, 1:1 binding model
[5] = SPR, GDP-bound HRAS wild-type protein vs GDP-bound KRAS wild-type protein
[6] = SPR, GDP-bound NRAS wild-type protein vs GDP-bound KRAS wild-type protein

| Structure (SMILES) | Kd [1, 4] | Kd ([1]; SPR, Single Cycle Kinetics) | HRAS/KRAS (ratio of KD value for HRAS to KD value for KRAS) [2, 5] | NRAS/KRAS (ratio of KD value for NRAS to KD value for KRAS) [3, 6] | other results |
| --- | --- | --- | --- | --- | --- |
| CCO[C@@H]1C[C@H]2C(=O)NC3(CCC3)C(=O)N(C)[C@@H](C3CCCC3)C(=O)N(C)[C@H](C(=O)N(C)CCOC)CC(=O)N(C)[C@@H](CC(C)C)C(=O)N[C@@H]([C@@H](C)CC)C(=O)N(C)CC(=O)N(C)[C@H]3C/C=C\CCN(C3=O)[C@@H](Cc3ccc(C(F)(F)F)cc3)C(=O)N(C)CC(=O)N[C@@H](CCc3ccc4sccc4c3)C(=O)N2C1 [PP1325] |  |  |  |  | Kd ([1]; SPR, Single Cycle Kinetics, 1:1 binding model): 0.55 nM; HRAS/KRAS (ratio of KD value for HRAS to KD value for KRAS) ([2]; SPR, GDP-bound HRAS wild-type protein vs GDP-bound KRAS wild-type protein, KD ratio class): A (a compound having 10 or more and less than 20 is denoted as A); NRAS/KRAS (ratio of KD value for NRAS to KD value for KRAS) ([3]; SPR, GDP-bound NRAS wild-type protein vs GDP-bound KRAS wild-type protein, KD ratio class): A (a compound having 10 or more and less than 20 is denoted as A) |
| CCCN1C(=O)CN(C)C(=O)CN(C)C(=O)[C@H]([C@@H](C)CC)NC(=O)[C@H](CC(C)C)N(C)C(=O)C[C@@H](C(=O)N2CCOCC2)N(C)C(=O)[C@H](C2CCCC2)N(C)C(=O)C2(CCCC2)NC(=O)[C@@H]2CCCN2C(=O)[C@H](CCc2ccc(C(F)(F)F)c(Cl)c2)NC(=O)[C@@H](C)N(C)C(=O)[C@@H]1Cc1ccc(C(F)(F)F)cc1 [PP0148] ([NMeL]I[Sar][Sar][NPrPhe(4-CF3)][dNMeA][hPhe(3-Cl-4-CF3)]P[Ac5c][NMeGly(cPent)][NMeD]-Morpholide; lactam N-11) | 3.4 nM |  | B (a compound having 3 or more and less than 10 is denoted as B) | B (a compound having 3 or more and less than 10 is denoted as B) |  |
| C=CCCCC[C@H]1C(=O)N[C@@H]([C@@H](C)CC)C(=O)N(C)CC(=O)N(C)[C@H]2CCCCN(C2=O)[C@@H](Cc2ccc(C(F)(F)F)cc2)C(=O)N(C)CC(=O)N[C@@H](CCc2cc(F)c(C(F)(F)F)c(F)c2)C(=O)N2C[C@H](OCC)C[C@H]2C(=O)N[C@](C)(CC=C)C(=O)N(C)[C@@H](C2CCCC2)C(=O)N(C)[C@H](C(=O)N2CCOCC2)CC(=O)N1C [PP0877] |  | 0.21 nM | B (a compound having 3 or more and less than 10 is denoted as B) | C (A compound having a KD ratio of 0.1 or more and less than 3 is denoted as C) |  |
| CCO[C@@H]1C[C@H]2C(=O)NC3(CCC3)C(=O)N(C)[C@@H](C3CCCC3)C(=O)N(C)[C@H](C(=O)N(C)C)CC(=O)N(C)[C@@H](CC(C)C)C(=O)N[C@@H]([C@@H](C)CC)C(=O)N(C)CC(=O)N(C)[C@H]3C/C=C\CCN(C3=O)[C@@H](Cc3ccc(C(F)(F)F)cc3)C(=O)N(C)CC(=O)N[C@@H](CCc3cc(F)c(C(F)(F)F)c(F)c3)C(=O)N2C1 [PP1107, (2S,8S,12R,14S,20S,23S,27S,30S,36S,38Z)-20-cyclopentyl-8-[2-[3,5-difluoro-4-(trifluoromethyl)phenyl]ethyl]-12-ethoxy-27-isobutyl-N,N,4,19,22,26,32,35-octamethyl-30-[(1S)-1-methylpropyl]-3,6,9,15,18,21,25,28,31,34,42-undecaoxo-2-[[4-(trifluoromethyl)phenyl]methyl]spiro[1,4,7,10,16,19,22,26,29,32,35-undecazatricyclo[34.5.1.0^10,14]dotetracont-38-ene-17,1′-cyclobutane]-23-carboxamide] |  | 0.038 nM | A (a compound having 10 or more and less than 20 is denoted as A) | A (a compound having 10 or more and less than 20 is denoted as A) |  |
| CCCN1C(=O)CN(C)C(=O)CN(C)C(=O)[C@H]([C@@H](C)CC)NC(=O)[C@H](CC(C)C)N(C)C(=O)C[C@@H](C(=O)N2CCOCC2)N(C)C(=O)[C@H](C2CCCC2)N(C)C(=O)C2(CCCC2)NC(=O)[C@@H]2C[C@@H](OC)CN2C(=O)[C@H](CCc2ccc(C(F)(F)F)c(Cl)c2)NC(=O)CN(C)C(=O)[C@@H]1Cc1ccc(C(F)(F)F)cc1 [PP0262] ([NMeL]I[Sar][Sar][NPrPhe(4-CF3)][Sar][hPhe(3-Cl-4-CF3)][Hyp](Me)[Ac5c][NMeGly(cPent)][NMeD]-Morpholide; lactam N-11) | 0.044 nM |  | B (a compound having 3 or more and less than 10 is denoted as B) | B (a compound having 3 or more and less than 10 is denoted as B) |  |

The next lines start with results.

| Kd [1, 4] | Kd ([1]; SPR, Single Cycle Kinetics) | Structure (SMILES) | HRAS/KRAS (ratio of KD value for HRAS to KD value for KRAS) [2, 5] | NRAS/KRAS (ratio of KD value for NRAS to KD value for KRAS) [3, 6] | other results |
| --- | --- | --- | --- | --- | --- |
| 0.27 nM |  | CCCN1C(=O)CN(C)C(=O)CN(C)C(=O)[C@H]([C@@H](C)CC)NC(=O)[C@H](CC(C)C)N(C)C(=O)C[C@@H](C(=O)N(C)C)N(C)C(=O)[C@H](C2CCCC2)N(C)C(=O)[C@](C)(C(C)C)NC(=O)[C@@H]2CCCN2C(=O)[C@H](CCc2cc(F)c(C(F)(F)F)c(F)c2)NC(=O)CN(C)C(=O)[C@@H]1Cc1ccc(C(F)(F)F)cc1 [PP0735] ([NMeL]I[Sar][Sar][NPrPhe(4-CF3)][Sar][hPhe(3,5-F2-4-CF3)]P[αMeV][NMeGly(cPent)][NMeD]-NMe2; lactam N-11) |  |  | HRAS/KRAS (ratio of KD value with respect to HRAS to KD value with respect to KRAS) [2, 5]: C (A compound having a KD ratio of 0.1 or more and less than 3 is denoted as C); NRAS/KRAS (ratio of KD value with respect to NRAS to KD value with respect to KRAS) [3, 6]: B (a compound having 3 or more and less than 10 is denoted as B) |
| 0.85 nM |  | CCC[C@H]1C(=O)N[C@@H]([C@@H](C)CC)C(=O)N(C)CC(=O)N(C)[C@H]2C/C=C\CCN(C2=O)[C@@H](Cc2ccc(C)cc2)C(=O)N(C)CC(=O)N[C@@H](CCc2ccc3c(C)cn(C)c3c2)C(=O)N2C[C@H](OCC)C[C@H]2C(=O)NC2(CC(C)(C)C2)C(=O)N(C)[C@@H](C2CCCC2)C(=O)N(C)[C@H](C(=O)N(C)C)CC(=O)N1C [PP2899] |  |  | HRAS/KRAS (ratio of KD value with respect to GDP-bound HRAS wild-type protein to KD value with respect to KRAS) ([2]; SPR KD ratio HRAS/KRAS, class symbols): B (a compound having 3 or more and less than 10 is denoted as B); NRAS/KRAS (ratio of KD value with respect to GDP-bound NRAS wild-type protein to KD value with respect to KRAS) ([3]; SPR KD ratio NRAS/KRAS, class symbols): A (a compound having 10 or more and less than 20 is denoted as A) |
|  | 0.04 nM | CCO[C@@H]1C[C@H]2C(=O)NC3(CC(C)(C)C3)C(=O)N(C)[C@@H](C3CCCC3)C(=O)N(C)[C@H](C(=O)N(C)C)CC(=O)N(C)[C@@H](CC)C(=O)N[C@@H]([C@@H](C)CC)C(=O)N(C)CC(=O)N(C)[C@H]3C/C=C\CCN(C3=O)[C@@H](Cc3ccc(C(F)F)cc3)C(=O)N(C)CC(=O)N[C@@H](CCc3cc(F)c(C(F)(F)F)c(F)c3)C(=O)N2C1 [PP2049] | B (a compound having 3 or more and less than 10 is denoted as B) | A (a compound having 10 or more and less than 20 is denoted as A) |  |
| 0.33 nM |  | CCCN1C(=O)CN(C)C(=O)CN(C)C(=O)[C@H]([C@@H](C)CC)NC(=O)[C@H](CC(C)C)N(C)C(=O)C[C@@H](C(=O)N(C)C)NC(=O)[C@H](C2CCCC2)N(C)C(=O)C2(CCCC2)NC(=O)[C@@H]2CCCN2C(=O)[C@H](CCc2ccc(C(F)(F)F)c(Cl)c2)NC(=O)CN(C)C(=O)[C@@H]1Cc1ccc(C(F)(F)F)cc1 [PP0355] ([NMeL]I[Sar][Sar][NPrPhe(4-CF3)][Sar][hPhe(3-Cl-4-CF3)]P[Ac5c][NMeGly(cPent)]D-NMe2; lactam N-11) | B (a compound having 3 or more and less than 10 is denoted as B) | B (a compound having 3 or more and less than 10 is denoted as B) |  |
|  | 0.5 nM | CCO[C@@H]1C[C@H]2C(=O)NC3(CCC3)C(=O)N(C)[C@@H](C3CCCC3)C(=O)N(C)[C@H](C(=O)N3CCOCC3)CC(=O)N(C)[C@@H](CC(C)C)C(=O)N[C@@H]([C@@H](C)CC)C(=O)N(C)CC(=O)N(C)[C@H]3CCCCCN(C3=O)[C@@H](Cc3ccc(F)c(C)c3)C(=O)N(C)CC(=O)N[C@@H](CCc3cc(F)c(C(F)(F)F)c(F)c3)C(=O)N2C1 [PP0922] | B (a compound having 3 or more and less than 10 is denoted as B) | B (a compound having 3 or more and less than 10 is denoted as B) |  |
